In the supplement of paper PMC10331698:
± gives the standard deviation of the averaged measurements.

How the values were obtained:
Assay in all cases: level (log10 ratio to DMSO vehicle control); higher = higher biomarker level / cell amount than vehicle control
[1] = compound: C=C(C)C(=O)OCCC(F)(F)C(F)(F)C(F)(F)C(F)(F)C(F)(C(F)(F)F)C(F)(F)F [(Perfluoro-5-methylhexyl)ethyl 2-methylprop-2-enoate]; conditions: in DMSO
Method: (§1)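 BioMAP Diversity Plus panel of 12 human primary cell co-culture systems (3C, 4H, LPS, SAg, BT, BF4T, BE3C, CASM3C, HDF3CGF, KF3CT, MyoF, Mphg). Compounds were added 1 h before stimulation and left for 24 h (MyoF 48 h; BT 72 h for soluble read-outs or 6 d for IgG). Biomarkers were read by ELISA, cytotoxicity by SRB, PBMC viability and proliferation by Alamar Blue. Each well value was divided by the mean of 8 DMSO control wells on the same plate and log10 transformed; duplicate blinded samples were tested at 4 concentrations.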

[2] = compound: FC(F)(F)C(F)(C(F)(F)F)C(F)(F)C(F)(F)CC1CO1 [3-(Perfluoro-3-methylbutyl)-1,2-propenoxide]; conditions: in DMSO
Method: as §1

[3] = compound: FC(F)(F)C(F)(F)C(F)(F)C(F)(F)C(F)(F)CCI [1-Iodo-1H,1H,2H,2H-perfluoroheptane]; conditions: in DMSO
Method: as §1

[4] = compound: NC(=O)C(F)(F)C(F)(F)C(F)(F)F [Heptafluorobutyramide]; conditions: in DMSO
Method: as §1

[5] = compound: O=C(O)C(F)(F)C(F)(F)C(F)(F)C(F)(F)F [Perfluoropentanoic acid]; conditions: in DMSO
Method: as §1

[6] = compound: O=C(O)C(F)(F)C(F)(F)C(F)(F)F [Perfluorobutanoic acid]; conditions: in DMSO
Method: as §1

[7] = compound: O=C(O)C(F)(F)C(F)(F)OC(F)(F)F [Perfluoro-3-methoxypropanoic acid]; conditions: in DMSO
Method: as §1

[8] = compound: OCCCC(F)(F)C(F)(F)C(F)(F)C(F)(F)C(F)(F)C(F)(F)C(F)(F)F [7:3 Fluorotelomer alcohol]; conditions: 6700 nM; in DMSO
Method: as §1

| Test System | level (log10) ([1]; 6700 nM) | level (log10) ([1]; 20000 nM) | level (log10) ([2]; 6700 nM) | level (log10) ([2]; 20000 nM) | level (log10) ([3]; 6700 nM) | level (log10) ([3]; 20000 nM) | level (log10) ([3]; 60000 nM) | level (log10) ([4]; 6700 nM) | level (log10) ([4]; 20000 nM) | level (log10) ([4]; 60000 nM) | level (log10) ([5]; 6700 nM) | level (log10) ([5]; 20000 nM) | level (log10) ([5]; 60000 nM) | level (log10) ([6]; 6700 nM) | level (log10) ([6]; 20000 nM) | level (log10) ([6]; 60000 nM) | level (log10) ([7]; 6700 nM) | level (log10) ([7]; 20000 nM) | level (log10) ([7]; 60000 nM) | level (log10) [8] |
| --- | --- | --- | --- | --- | --- | --- | --- | --- | --- | --- | --- | --- | --- | --- | --- | --- | --- | --- | --- | --- |
| LPS:CD142/Tissue Factor | 0.032 ± 0.014 | 0.006 ± 0.014 | -0.017 ± 0.088 | 0.031 ± 0.096 | 0.0045 ± 0.018 | 0.0285 ± 0.016 | 0.038 ± 0.0085 | -0.0035 ± 0.028 | 0.002 ± 0.061 | -0.0245 ± 0.047 | 0.006 ± 0.0099 | -0.007 ± 0.051 | 0.031 ± 0.099 | 0.0045 ± 0.037 | -0.0205 ± 0.00071 | -0.0045 ± 0.019 | 0.0095 ± 0.013 | 0.032 ± 0.021 | 0.0125 ± 0.073 | -0.0245 ± 0.0064 |
| LPS:IL-1alpha | -0.0515 ± 0.096 | -0.0355 ± 0.023 | -0.0205 ± 0.011 | 0.0155 ± 0.0092 | 0.023 ± 0.033 | 0.0055 ± 0.022 | 0.0205 ± 0.0064 | -0.014 ± 0.018 | -0.0125 ± 0.0035 | 0.013 ± 0.054 | -0.0005 ± 0.00071 | -0.0115 ± 0.012 | -0.021 ± 0.017 | -0.0225 ± 0.032 | -0.0305 ± 0.019 | -0.0035 ± 0.016 | -0.025 ± 0.0071 | -0.0285 ± 0.0078 | 0.0005 ± 0.0021 | -0.0615 ± 0.013 |
| BF4T:CCL2/MCP-1 | 0.012 ± 0.011 | 0.0275 ± 0.005 | -0.011 ± 0.011 | -0.0035 ± 0.0092 | -0.008 ± 0.025 | -0.044 ± 0.044 | -0.055 ± 0.02 | 0.008 ± 0.058 | -0.011 ± 0.04 | 0.014 ± 0.047 | 0.004 ± 0.047 | -0.0035 ± 0.052 | -0.0275 ± 0.025 | 0.004 ± 0.038 | 0.017 ± 0.0057 | 0.006 ± 0.0071 | 0.0075 ± 0.026 | 0.0115 ± 0.043 | 0.0535 ± 0.054 | -0.0115 ± 0.019 |
| 4H:CD87/uPAR | 0.0115 ± 0.037 | 0 ± 0.0071 | -0.005 ± 0.027 | 0.0075 ± 0.04 | 0.0265 ± 0.018 | 0.0175 ± 0.005 | 0.025 ± 0.03 | 0.048 ± 0.014 | 0.031 ± 0.0014 | 0.0315 ± 0.0092 | -0.0435 ± 0.035 | -0.0355 ± 0.005 | -0.055 ± 0.0028 | -0.013 ± 0.0071 | -0.0125 ± 0.029 | -0.041 ± 0.0071 | -0.031 ± 0.044 | -0.0165 ± 0.047 | -0.0045 ± 0.029 | 0.0105 ± 0.015 |
| BF4T:CD90 | 0.011 | 0 ± 0.0085 | -0.0175 ± 0.00071 | -0.0165 ± 0.03 | 0.0025 ± 0.00071 | -0.001 ± 0.0028 | 0.013 ± 0.0028 | 0.002 ± 0.013 | -0.008 ± 0.0085 | 0.003 ± 0.0042 | -0.02 ± 0.0085 | -0.0105 ± 0.005 | -0.0025 ± 0.025 | -0.001 ± 0.0028 | -0.0055 ± 0.00071 | -0.0075 ± 0.0078 | -0.012 ± 0.021 | -0.0165 ± 0.013 | -0.0095 ± 0.0035 | -0.004 ± 0.0028 |
| 4H:CD62P/P-selectin | -0.017 ± 0.03 | -0.02 ± 0.028 | -0.0085 ± 0.0064 | 0.0305 ± 0.012 | 0.028 ± 0.075 | 0.049 ± 0.033 | -0.0635 ± 0.044 | 0.002 ± 0.0099 | 0.049 ± 0.034 | 0.015 ± 0.02 | -0.0025 ± 0.067 | -0.023 ± 0.03 | -0.0285 ± 0.043 | 0.086 ± 0.076 | 0.0575 ± 0.0035 | 0.09 ± 0.054 | -0.004 ± 0.0057 | 0.005 ± 0.011 | 0.0065 ± 0.029 | 0.04 ± 0.027 |
| BF4T:uPA | -0.0295 ± 0.0064 | -0.063 ± 0.0014 | -0.0115 ± 0.0078 | -0.0325 ± 0.0078 | 0.0125 ± 0.033 | 0.005 ± 0.0071 | 0.0135 ± 0.0064 | -0.0045 ± 0.03 | -0.006 ± 0.013 | -0.006 ± 0.014 | -0.0315 ± 0.029 | -0.031 ± 0.023 | -0.0175 ± 0.033 | -0.005 ± 0.0071 | -0.011 ± 0.021 | -0.0025 ± 0.005 | -0.009 ± 0.021 | -0.0015 ± 0.012 | 0.0155 ± 0.042 | -0.011 ± 0.0057 |
